Results on six molecules are retold here after patent publication US10202349B2, “Asymmetric bis-acridines with antitumour activity and their uses” (POLITECHNIKA GDAŃSKA, priority 2015, dated 2019).

In one assay the test system is BxPC-3. Kind of assay: Cytotoxic activity in vitro, SRB. In kind it is cell-based, human. The method, then:
(§1) Cytotoxic activity tests in-vitro. A measure of the cytotoxic activity of bis-acridines are the EC50 (concentration of studied compounds at which 50% inhibition of proliferation of tumorous is observed) of the evaluated compounds that inhibit the growth of 50% of cells in relation to a control. The cytotoxic activity of the compounds was determined using SRB, recommended by the US National Cancer Institute (USA). As the spectrum of 13 human origin neoplasms in bis-acridine screening studies, we used the following: HT 29 [CRC], HCT 116 [CRC], H 460 [lung cancer], MDA MB 231 [breast cancer], MCF-7 [breast cancer], UM UC3 [bladder cancer], PC 3 [prostate cancer], DU 145 [ prostate cancer], Panc-1 [pancreatic cancer], Mia Pa Ca 2 [pancreatic cancer], BXPC 3 [pancreatic cancer], AsPC1 [pancreatic cancer], Capan-2 [pancreatic cancer]. […] The DU-145 results were substantially a basis for selecting compounds and neoplasms for screening. The next neoplasms most sensitive to the cytotoxic activity of bis-acridines was the CRC HCT-116, as well as breast cancer MBA-MB-231. […] The cytotoxic activity of the remaining bis-acridines is significant or high (EC50 in the range from 1 to 0.04 μM). […] Panc-1, MiaPaCa-2 and Capan-2 are more sensitive, whereas for AsPC-1 and BxPC-3 this activity is at least an order of magnitude smaller.

Another assay concerns HCT-116. Kind of assay: Cytotoxic activity in vitro, SRB. The class given is cell-based, human. The procedure:
as §1

The next assay has as its system AsPC-1. Kind of assay: Cytotoxic activity in vitro, SRB. The class given is cell-based, human. The method, then: as §1
The subject of the next assay is PANC-1. Kind of assay: Cytotoxic activity in vitro, SRB. The class given is cell-based, human. The method, then: as §1
A further assay relates to MiaPaCa-2. Kind of assay: Cytotoxic activity in vitro, SRB. The class given is cell-based, human. The method, then:
as §1

The next assay relates to DU-145. Kind of assay: Cytotoxic activity in vitro, SRB. In kind it is cell-based, human. The method, then:
as §1

The next assay has as its system BXPC 3. The experiment in a line: Anti-neoplasmic activity against xenograft in hairless mice. In kind it is in vivo. Conditions: series 25, i.v., single 20 mg/kg, total 160 mg/kg, day 29. The method, then: (§2) For this, we selected 26 bis-acridines, mainly on the basis of the cytotoxic activity. We performed 34 series of experiments evaluating the anti-neoplasmic activity on xenografts in hairless mice against eleven neoplasms of human origin from the determination of the cytotoxic activity of bis-acridines (table 4). The tumours were injected subcutaneously to hairless mice of 5-weeks, female Crl:Nu-Foxnlnu, at a rate of 5×10^6 cells per mouse. After attaining a tumour of about 100 mm^3 or 200 mm^3 in depending on the neoplasm and its take this was 8 or even 30 days, and began therapy. On the day therapy was initiated, we randomised the animals and divided them into groups. Test groups were from 6 to 8 animals, and controls had from 8 to 14 animals. Each compound was tested at three differentiated doses.
(§3) The preparations were administered intravenously (i.v.) twice weekly for 4 weeks (thrice weekly for rapidly growing neoplasms). In several series, we used intraperitoneally (i.p.) administration in the same scheme. […] The therapeutic efficacy of the tested formulations was evaluated by measuring tumour size (length and width measurements of the tumour on the basis of the calculated tumour volume). Tumours were measured twice weekly for a period of about 30 days for fast-growing neoplasms, as well as about 60 days for the slow-growing neoplasms. The tumour volume in the treated groups compared with the control group. On this basis, inhibition of tumour growth was calculated using the following formula: Tumour growth inhibition TGI [%]=100−(ΔVT/ΔVC×100) Where ΔVT—is mean the tumour volume in animals in the group treated at the given day of treatment, minus the mean tumour volume in animals at the date of commencement of therapy. ΔVC is mean tumour volume in animals in the control group on a given day of treatment minus the average tumour volume of animals on the date of commencement of therapy. The results of the tests of anti-neoplasmic activity conducted in xenografts of human-origin neoplasms in mice are shown in Table 5.
(§4) The result above was accepted only in the case that the dose administered in all animals or more than half of the animals that survived to the end of the experiment. In addition, the evaluation was the day that the administration of the preparation was already completed: for the fast-growing neoplasms (eg. HCT116) this was in the days from 15 to 26, while for slow-growing neoplasms (eg. Panc 1) on a day from 34 to 60. […] In addition, the maximum inhibition of neoplasms could be identified in the day, in which there were no factors that could change the value TGI value.
(§5) Such factors may include: a significant decrease in body weight, the appearance of observable toxaemia, excessive rate of tumour growth: tumours in excess of 2000 mm^3 and all animals alive on that day.

The subject of a further assay is PANC 1. The description is as above. In kind it is in vivo. The method, then: as §2, §3, §4, §5
The next assay concerns HT-29. The experiment in a line: Cytotoxic activity in vitro, SRB. In kind it is cell-based, human. The procedure: as §1
The test system of the next assay is MDA-MB-231. Kind of assay: Cytotoxic activity in vitro, SRB. In kind it is cell-based, human. The procedure: as §1
The next assay concerns DU 145. Kind of assay: Anti-neoplasmic activity against xenograft in hairless mice. The class given is in vivo. The note with it: series 1, i.p., single 8 mg/kg, total 40 mg/kg, day 35, *at least half of animals did not survive. The procedure: as §2, §3, §4, §5
The next assay deals with UM-UC-3. The experiment in a line: Cytotoxic activity in vitro, SRB. The class given is cell-based, human. The procedure: as §1
The next assay deals with H-460. The experiment in a line: Cytotoxic activity in vitro, SRB. The class given is cell-based, human. The method, then:
as §1

In another assay the test system is PC-3. The experiment in a line: Cytotoxic activity in vitro, SRB. In kind it is cell-based, human. The procedure: as §1
The next assay deals with H 460. The experiment in a line: Anti-neoplasmic activity against xenograft in hairless mice. In kind it is in vivo. The note with it: single 10 mg/kg, total 60 mg/kg. The method, then: as §2, §3, §4, §5
For the next assay, the system named is MCF-7. Kind of assay: Cytotoxic activity in vitro, SRB. In kind it is cell-based, human. The procedure: as §1

In general, EC50 refers to the concentration at which the effect is half-maximal. A lower EC50 goes with higher potency in that assay.

`Cc1ccc([N+](=O)[O-])c2c(NCCCN3CCN(CCCNc4ccc5ncn6c7ccccc7c(=O)c4c56)CC3)c3ccccc3nc12` [C-2050, 1-[3-(imidazo[4,5,1-de]-acridin-6-on-5-yl)aminopropyl]-4-[3′-(4′-methyl-1′-nitroacridin-1-yl)-aminopropyl]piperazine]: the concentration for a half-maximal effect (EC50) in the assay with BxPC-3 stood at 351 nM; in the assay with HCT-116, 45 nM; in the assay with AsPC-1 it was 240 nM; in the assay with PANC-1 it was 65 nM; in the assay with MiaPaCa-2, 58 nM; in the assay on DU-145 it was 62 nM. The “TGI [%] [100 − (ΔVT/ΔVC × 100]” value in the assay with BXPC 3 was determined as 40%; with PANC 1 (series 24, i.v., single 20 mg/kg, total 160 mg/kg, day 50) it was 64%; in the assay on PANC 1 (series 26, i.v., single 30 mg/kg, total 160 mg/kg, day 40), 64%.

In the case of `Cc1ccc(NCCNCCNc2c3ccccc3nc3cccc([N+](=O)[O-])c23)c2c(=O)c3ccccc3[nH]c12` [C-1965, 9-{N-[(4-methyl-9(10H)-acridono-1-yl)aminoethyl]ethylamino}-1′-nitroacridine], the EC50 in the assay with HT-29 came to 138 nM; in the assay with MDA-MB-231 it was 137 nM; in the assay on PANC-1, 212 nM; with DU-145 it was 243 nM. Also, the “TGI [%] [100 − (ΔVT/ΔVC × 100]” value in the assay on DU 145 is 61* %.

For the molecule “1-[3-(8-hydroxy-methylimidazo[4,5,1-de]-acridin-6-on-5-yl)aminopropyl]-4-[3′-(1′-nitroacridin-1-yl)-aminopropyl]piperazine [C-2051]”, the 50% effective concentration (EC50) is 152 nM in the assay with BxPC-3; 27 nM in the assay with HCT-116; 151 nM in the assay with AsPC-1; 39 nM with PANC-1; 18 nM in the assay on MiaPaCa-2; 24 nM in the assay with DU-145. Moreover, the “TGI [%] [100 − (ΔVT/ΔVC × 100]” value with PANC 1 (series 27, i.v., single 2 mg/kg, total 16 mg/kg, day 40, *at least half of animals did not survive) was 68* %.

Consider `Cc1ccc([N+](=O)[O-])c2c(NCCCN3CCN(CCCNc4ccc([N+](=O)[O-])c5[nH]c6ccccc6c(=O)c45)CC3)c3ccccc3nc12` [C-2030, 1-[3-(4-nitro-9(10H)-acridono-1-yl)aminopropyl]-4-[3′-(4′-methyl-1′-nitroacridin-1-yl)-aminopropyl]piperazine], for which the concentration giving a half-maximal response (EC50) came out at 83 nM in the assay with HCT-116; 63 nM with UM-UC-3; 130 nM in the assay with PANC-1; 108 nM in the assay on MiaPaCa-2; 41 nM in the assay on DU-145; 40 nM with H-460. In the assay on PC-3, the EC50 was 362 nM. For the same molecule, in the assay on H 460 (series 6, i.v., day 17, *at least half of animals did not survive), the “TGI [%] [100 − (ΔVT/ΔVC × 100]” value is recorded as 24* %.

For the molecule `O=c1c2ccccc2n2nnc3ccc(NCCCN4CCN(CCCNc5c6ccccc6nc6cccc([N+](=O)[O-])c56)CC4)c1c32` [C-2048, 1-[3-(6H-[1,2,3]triazolo[4,5,1-de]-acridin-6-on-5-yl)aminopropyl]-4-[3′-(1′-nitroacridin-1-yl)-aminopropyl]piperazine], the concentration giving a half-maximal response (EC50) with MCF-7 was 103 nM; in the assay with HCT-116, 41 nM; with HT-29 it was 152 nM; in the assay on UM-UC-3 it was 120 nM; in the assay with MDA-MB-231 it was 33 nM; in the assay with DU-145, 22 nM. Moreover, the “TGI [%] [100 − (ΔVT/ΔVC × 100]” value in the assay on PANC 1 (series 30, i.v., single 4 mg/kg, total 24 mg/kg, day 52) was 86%.

In the case of `Cc1ccc([N+](=O)[O-])c2c(NCCCNCCCNc3ccc(C)c4[nH]c5ccccc5c(=O)c34)c3ccccc3nc12` [C-2022, 9-{N-[(4-methyl-9(10H)-acridono-1-yl)aminopropyl]propylamino}-4′-methyl-1′-nitroacridine], the EC50 was determined as 85 nM in the assay with HCT-116; 1300 nM with HT-29; 105 nM in the assay on UM-UC-3; 162 nM with PANC-1; 129 nM in the assay with DU-145; 67 nM with H-460. In the assay on H 460 (series 5, i.p., day 14), the “TGI [%] [100 − (ΔVT/ΔVC × 100]” value is recorded as 25%.
